# Source: ChEMBL document CHEMBL1201862, “PubChem BioAssay data set” (2004)
# “And” between values parts separate entries of the source, which are not always exact repeats. Equal values may be shown once. The source made the active and inactive calls.
# Assays:
# [1] = target: T1, Calpain-2 catalytic subunit (Sus scrofa, UniProt P43367); experiment: m-calpain protease blockers, concentration series – biochemical, fluorogenic peptide substrate, dose response (AID 1420); type: functional
# T1 sequence (P43367 whole entry): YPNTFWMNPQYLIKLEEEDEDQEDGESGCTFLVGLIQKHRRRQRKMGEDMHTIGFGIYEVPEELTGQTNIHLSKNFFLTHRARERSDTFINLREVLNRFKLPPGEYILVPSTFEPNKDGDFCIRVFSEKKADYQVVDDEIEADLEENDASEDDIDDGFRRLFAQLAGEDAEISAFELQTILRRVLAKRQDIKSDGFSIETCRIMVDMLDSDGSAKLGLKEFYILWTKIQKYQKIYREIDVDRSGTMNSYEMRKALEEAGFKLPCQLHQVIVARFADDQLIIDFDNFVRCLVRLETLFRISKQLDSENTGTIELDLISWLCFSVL
# [2] = target: T2, Carboxy-terminal domain RNA polymerase II polypeptide A small phosphatase 1 (Homo sapiens, UniProt Q9GZU7); experiment: CTDSP1 inhibitors, concentration-response, biochemical, absorbance readout, ultra-high-throughput screen actives (AID 540297); type: functional
# T2 sequence (Q9GZU7 whole entry): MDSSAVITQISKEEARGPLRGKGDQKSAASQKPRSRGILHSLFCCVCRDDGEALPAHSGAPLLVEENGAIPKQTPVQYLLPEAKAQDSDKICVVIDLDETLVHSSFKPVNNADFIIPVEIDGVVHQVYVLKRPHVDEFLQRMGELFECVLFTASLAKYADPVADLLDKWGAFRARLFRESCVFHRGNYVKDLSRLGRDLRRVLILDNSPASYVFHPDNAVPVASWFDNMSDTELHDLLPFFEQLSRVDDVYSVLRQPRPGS
# Large T antigen = Large T antigen (Simian virus 40, UniProt P03070); type: functional, Betapolyomavirus macacae;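 further: Confirmatory-stage PubChem screen for compounds that inhibit SV40 T antigen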
# Cytochrome P450 3A4 = Cytochrome P450 3A4 (Homo sapiens, UniProt P08684); settings: Potency;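 further: confirmatory qHTS run detecting inhibitors and substrates of CYP3A4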
# Genome polyprotein = Genome polyprotein (dengue virus type 2, UniProt P29990); experiment: flavivirus cap methylation enzyme inhibition – biochemical, confirmation dose response, primary screen (AID 588689); type: functional
# H9c2 = experiment: cells; type: functional, cell-based; settings: Rattus norvegicus, H9c2, Myocardium;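 further: confirmatory concentration-response retest of ultra-high-throughput screening hits for modulation of myocardial damage; cell death induced by hydrogen peroxide oxidative stress; compound pretreatment for 60 min then peroxide exposure for 2 h; potency is for protecting the cells against peroxide damage rather than for killing them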
# [3] = luciferase reporter signal suppression in cells – H4 neuroglioma cells, luminescence, dose response (AID 1990); type: functional, cell-based
# [4] = Luminescence Cell-Based Dose Response HTS to Identify Inhibitors of 5'UTR Stem-Loop Driven Prion Protein mRNA Translation in H4 Neuroglioblastoma Cells. [Related pubchem assays: 1827 (Project Summary), 1813 (Primary HTS)]; type: functional
# [5] = alpha-synuclein stem-loop luciferase translation blockers – H4 neuroglioma cells, luminescence, confirmation (AID 1988); type: functional, cell-based
# [6] = target: T3, Rac GTPase-activating protein 1 (Homo sapiens, UniProt Q9H0H5); experiment: blockers of MgcRacGAP-driven Rac1 GTP hydrolysis – biochemical, ADP Hunter fluorescence, primary and confirmatory, confirmation (AID 624330); type: functional
# T3 sequence (Q9H0H5 whole entry): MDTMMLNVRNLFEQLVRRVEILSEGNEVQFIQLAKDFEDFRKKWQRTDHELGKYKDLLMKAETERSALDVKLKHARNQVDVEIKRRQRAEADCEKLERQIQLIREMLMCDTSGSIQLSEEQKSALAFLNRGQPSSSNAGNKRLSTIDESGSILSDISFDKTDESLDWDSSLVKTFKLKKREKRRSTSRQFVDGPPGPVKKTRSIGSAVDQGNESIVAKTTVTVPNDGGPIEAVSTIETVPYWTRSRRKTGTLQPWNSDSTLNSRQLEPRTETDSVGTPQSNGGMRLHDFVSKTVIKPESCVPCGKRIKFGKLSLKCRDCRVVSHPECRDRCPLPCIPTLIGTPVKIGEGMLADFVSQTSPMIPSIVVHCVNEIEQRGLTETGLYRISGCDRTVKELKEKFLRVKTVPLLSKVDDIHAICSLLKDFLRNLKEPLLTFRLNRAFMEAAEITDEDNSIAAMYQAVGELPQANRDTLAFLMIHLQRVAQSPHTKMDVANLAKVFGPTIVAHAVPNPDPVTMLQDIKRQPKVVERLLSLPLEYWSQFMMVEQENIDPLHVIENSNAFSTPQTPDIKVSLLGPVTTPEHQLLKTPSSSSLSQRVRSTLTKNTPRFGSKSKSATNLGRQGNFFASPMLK
# [7] = target: T4, High affinity choline transporter 1 (Homo sapiens, UniProt Q9GZV3); experiment: human choline transporter blockers, potency – cell-based, 5-point CRC, membrane potential dye, dose response (AID 504840); type: functional
# T4 sequence (Q9GZV3 whole entry): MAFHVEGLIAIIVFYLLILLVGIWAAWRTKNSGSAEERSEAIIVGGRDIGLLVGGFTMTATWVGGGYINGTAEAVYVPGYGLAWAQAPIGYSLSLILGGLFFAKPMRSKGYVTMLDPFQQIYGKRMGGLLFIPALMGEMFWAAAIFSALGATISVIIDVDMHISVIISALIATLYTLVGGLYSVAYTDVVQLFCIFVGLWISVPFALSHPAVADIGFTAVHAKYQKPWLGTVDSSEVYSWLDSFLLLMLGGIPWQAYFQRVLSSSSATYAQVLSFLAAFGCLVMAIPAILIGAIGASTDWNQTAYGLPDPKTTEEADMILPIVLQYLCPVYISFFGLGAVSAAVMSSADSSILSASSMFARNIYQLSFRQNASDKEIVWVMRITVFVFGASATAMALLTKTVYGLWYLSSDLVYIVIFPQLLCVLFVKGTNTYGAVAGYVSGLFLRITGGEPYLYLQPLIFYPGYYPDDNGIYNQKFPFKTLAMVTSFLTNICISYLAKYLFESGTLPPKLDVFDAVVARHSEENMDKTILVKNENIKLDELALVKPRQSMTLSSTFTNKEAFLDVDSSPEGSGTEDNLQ
# [8] = Trypanosoma cruzi growth suppression in host cells – NIH3T3 host cells, beta-gal luminescence, confirmation (AID 2044); type: functional, cell-based;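 further: intracellular parasites grown in NIH/3T3 mouse fibroblasts as host cells; luminescent beta-galactosidase reporter signal from transgenic T. cruzi replicating inside host cells; inhibitors lower the luminescence signal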
# [9] = NIH3T3 cell viability loss – ATP luminescence, mouse fibroblasts, counter-screen, dose response (AID 2010); type: functional, cell-based;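 further: cells exposed to compound for about 90 hours before reading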
# cells = type: functional
# [10] = target: T5, Corticotropin-releasing factor receptor 2/Corticotropin-releasing factor-binding protein (Homo sapiens, UniProt P24387+Q13324); experiment: activators of CRF receptor 2 with binding protein – uHTS hits, confirmation (AID 602473); type: functional; settings: read-out: EC50_Mean
# T5 sequence (Q13324 whole entry): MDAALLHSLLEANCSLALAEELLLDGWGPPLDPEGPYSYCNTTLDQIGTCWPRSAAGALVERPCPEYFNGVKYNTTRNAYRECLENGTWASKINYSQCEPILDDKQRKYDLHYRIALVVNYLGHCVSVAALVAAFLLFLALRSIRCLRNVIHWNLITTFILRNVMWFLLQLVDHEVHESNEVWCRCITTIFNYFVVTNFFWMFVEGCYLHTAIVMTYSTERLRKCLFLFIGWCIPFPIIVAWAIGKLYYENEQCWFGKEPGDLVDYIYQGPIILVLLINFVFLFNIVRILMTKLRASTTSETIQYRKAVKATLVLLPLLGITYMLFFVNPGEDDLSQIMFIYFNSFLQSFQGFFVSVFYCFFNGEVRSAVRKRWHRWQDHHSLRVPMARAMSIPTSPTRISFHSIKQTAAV
# T5 sequence (P24387 whole entry): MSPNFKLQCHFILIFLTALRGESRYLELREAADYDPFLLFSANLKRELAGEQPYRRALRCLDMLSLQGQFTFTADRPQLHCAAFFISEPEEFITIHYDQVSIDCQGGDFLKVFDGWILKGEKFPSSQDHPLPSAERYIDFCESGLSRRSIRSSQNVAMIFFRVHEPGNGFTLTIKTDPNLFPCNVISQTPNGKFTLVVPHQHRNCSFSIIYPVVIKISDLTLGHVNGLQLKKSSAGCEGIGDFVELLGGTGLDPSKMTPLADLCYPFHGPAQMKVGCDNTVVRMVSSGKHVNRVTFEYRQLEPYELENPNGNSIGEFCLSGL
# Cytochrome P450 2D6 = Cytochrome P450 2D6 (Homo sapiens, UniProt P10635);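 further: CYP2D6 member of a cytochrome P450 panel assay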
# [11] = target: Induced myeloid leukemia cell differentiation protein Mcl-1 (Homo sapiens, UniProt Q07820); type: functional
# Induced myeloid leukemia cell differentiation protein Mcl-1, sequence (Q07820 whole entry): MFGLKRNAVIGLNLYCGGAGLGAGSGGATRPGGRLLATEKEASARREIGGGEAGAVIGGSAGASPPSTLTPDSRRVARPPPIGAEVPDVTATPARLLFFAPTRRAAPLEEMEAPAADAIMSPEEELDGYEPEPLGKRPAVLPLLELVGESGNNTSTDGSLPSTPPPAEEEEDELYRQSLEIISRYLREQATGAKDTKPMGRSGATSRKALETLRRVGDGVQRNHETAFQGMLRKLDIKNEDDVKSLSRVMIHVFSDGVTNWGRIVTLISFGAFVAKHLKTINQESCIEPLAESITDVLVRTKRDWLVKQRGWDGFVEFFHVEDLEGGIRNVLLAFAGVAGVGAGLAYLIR
# Cytochrome P450 3A4, sequence (P08684 whole entry): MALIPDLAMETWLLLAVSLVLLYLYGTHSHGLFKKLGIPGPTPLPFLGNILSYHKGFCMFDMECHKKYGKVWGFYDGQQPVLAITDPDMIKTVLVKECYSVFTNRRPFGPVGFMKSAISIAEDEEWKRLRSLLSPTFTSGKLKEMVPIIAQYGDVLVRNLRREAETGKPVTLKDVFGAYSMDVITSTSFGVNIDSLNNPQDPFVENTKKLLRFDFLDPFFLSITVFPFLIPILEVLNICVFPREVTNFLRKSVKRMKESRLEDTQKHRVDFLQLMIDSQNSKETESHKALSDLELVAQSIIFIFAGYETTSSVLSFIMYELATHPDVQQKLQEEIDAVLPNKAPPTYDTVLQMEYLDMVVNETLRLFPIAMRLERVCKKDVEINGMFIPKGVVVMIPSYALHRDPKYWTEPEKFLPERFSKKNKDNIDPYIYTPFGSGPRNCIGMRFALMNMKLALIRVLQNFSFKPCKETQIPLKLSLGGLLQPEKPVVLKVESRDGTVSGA
# Large T antigen, sequence (P03070 whole entry): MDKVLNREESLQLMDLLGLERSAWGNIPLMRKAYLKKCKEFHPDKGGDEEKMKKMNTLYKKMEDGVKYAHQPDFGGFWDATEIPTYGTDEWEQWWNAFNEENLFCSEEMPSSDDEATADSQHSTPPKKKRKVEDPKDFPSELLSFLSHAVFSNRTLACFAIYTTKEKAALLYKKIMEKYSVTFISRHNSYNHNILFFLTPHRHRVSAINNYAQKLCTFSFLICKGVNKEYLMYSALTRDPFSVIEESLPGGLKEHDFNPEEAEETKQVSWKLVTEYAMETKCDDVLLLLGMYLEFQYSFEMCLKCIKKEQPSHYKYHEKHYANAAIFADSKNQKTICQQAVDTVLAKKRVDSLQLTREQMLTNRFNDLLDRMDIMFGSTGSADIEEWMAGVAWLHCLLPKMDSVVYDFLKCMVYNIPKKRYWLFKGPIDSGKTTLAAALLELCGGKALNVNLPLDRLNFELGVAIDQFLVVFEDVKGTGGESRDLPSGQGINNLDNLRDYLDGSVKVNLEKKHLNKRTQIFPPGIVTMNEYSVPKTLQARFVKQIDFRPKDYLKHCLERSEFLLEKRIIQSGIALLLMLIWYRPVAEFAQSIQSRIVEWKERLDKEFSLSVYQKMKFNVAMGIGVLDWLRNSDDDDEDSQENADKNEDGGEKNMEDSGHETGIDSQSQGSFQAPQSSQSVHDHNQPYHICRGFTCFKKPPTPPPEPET
# Genome polyprotein, sequence (P29990 2492-3391 limits assumed): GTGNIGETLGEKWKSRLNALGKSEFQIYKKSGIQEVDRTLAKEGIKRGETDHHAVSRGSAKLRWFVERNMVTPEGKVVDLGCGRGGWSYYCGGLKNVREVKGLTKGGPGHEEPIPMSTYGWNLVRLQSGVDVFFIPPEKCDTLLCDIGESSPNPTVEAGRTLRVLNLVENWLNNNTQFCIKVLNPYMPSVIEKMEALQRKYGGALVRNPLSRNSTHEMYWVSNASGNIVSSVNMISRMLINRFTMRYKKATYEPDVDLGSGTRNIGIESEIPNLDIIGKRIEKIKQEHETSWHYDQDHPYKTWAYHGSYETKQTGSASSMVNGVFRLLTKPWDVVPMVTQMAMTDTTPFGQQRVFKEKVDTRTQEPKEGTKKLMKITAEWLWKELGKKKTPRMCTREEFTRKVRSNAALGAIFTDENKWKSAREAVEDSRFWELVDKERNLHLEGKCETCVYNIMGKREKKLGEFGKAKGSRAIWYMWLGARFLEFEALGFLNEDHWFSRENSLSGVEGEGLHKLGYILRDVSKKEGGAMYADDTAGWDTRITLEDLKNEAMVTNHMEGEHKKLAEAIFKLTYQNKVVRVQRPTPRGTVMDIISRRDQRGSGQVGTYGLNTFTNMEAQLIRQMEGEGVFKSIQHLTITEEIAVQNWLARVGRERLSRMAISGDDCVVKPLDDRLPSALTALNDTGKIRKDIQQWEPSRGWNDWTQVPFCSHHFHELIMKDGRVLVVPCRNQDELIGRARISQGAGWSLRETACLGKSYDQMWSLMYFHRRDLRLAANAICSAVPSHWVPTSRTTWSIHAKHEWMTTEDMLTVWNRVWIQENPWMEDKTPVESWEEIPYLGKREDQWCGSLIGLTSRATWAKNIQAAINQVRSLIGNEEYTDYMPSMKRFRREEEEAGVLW
# Cytochrome P450 2D6, sequence (P10635 whole entry): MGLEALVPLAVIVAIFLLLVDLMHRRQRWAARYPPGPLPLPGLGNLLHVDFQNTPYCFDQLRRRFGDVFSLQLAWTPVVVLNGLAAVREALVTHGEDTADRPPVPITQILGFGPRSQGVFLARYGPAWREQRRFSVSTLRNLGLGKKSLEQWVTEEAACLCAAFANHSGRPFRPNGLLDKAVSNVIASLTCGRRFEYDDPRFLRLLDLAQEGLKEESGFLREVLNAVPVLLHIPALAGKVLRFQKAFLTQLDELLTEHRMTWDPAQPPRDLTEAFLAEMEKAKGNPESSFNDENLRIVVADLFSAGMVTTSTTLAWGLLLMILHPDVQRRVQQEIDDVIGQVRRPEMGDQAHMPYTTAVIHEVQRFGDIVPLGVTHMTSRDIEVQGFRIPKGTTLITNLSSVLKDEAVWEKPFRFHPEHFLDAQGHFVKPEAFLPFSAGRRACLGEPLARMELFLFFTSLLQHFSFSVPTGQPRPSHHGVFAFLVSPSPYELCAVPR
compound,measurement,setting,value
Cc1cc(C)c(NC(=O)Cn2cc3c(n2)CCCC3)c(C)c1,IC50,[1],20.5 µM (not active)
CCN(CC)CCNC(C(=O)Nc1cc(C(F)(F)F)ccc1Cl)c1ccccc1 (stereo not drawn),IC50,[2],9.32 µM (active)
O=C(c1nc2ccc(Cl)cn2c1CN1CCCC1)N1CCc2ccccc2C1,IC50,[2],17.5 µM (active)
CN(C)c1ccc(NC(=O)CN2CCN(CC(=O)Nc3ccc(F)cc3)CC2)cc1,IC50,Large T antigen,17.2 µM (active)
COc1ccc(-c2coc3ccc(OC4OC(COC(C)=O)C(OC(C)=O)C(OC(C)=O)C4OC(C)=O)cc3c2=O)cc1 (stereo not drawn),AC50,Cytochrome P450 3A4,1.58 µM (inconclusive)
CCCCCc1c2c(cc(O)c1C(=O)O)OC(=O)c1cc(C(=O)CCCC)c(OC)cc1O2,IC50,Genome polyprotein,39 µM (active)
COc1ccc(C(CC(=O)N2CCN(c3ccccc3)CC2)c2c(OC)cc(OC)c3ccc(=O)oc23)cc1 (stereo not drawn),IC50,H9c2,11.4 µM (active)
CCOC(=O)c1cnc(SC)nc1Oc1cccc(NC(=O)c2cccc(Cl)c2Cl)c1,IC50,H9c2,> 79 µM (inactive)
COC(=O)C1=C(C)N(Cc2ccccc2)c2c(C(=O)OC)c(C(=O)OC)c(C(=O)OC)c(=O)n2C1c1ccccc1 (stereo not drawn),AC50,Cytochrome P450 3A4,5.01 µM (inconclusive) and 3.98 µM (inconclusive)
O=C1COc2ccc(C(=O)COC(=O)/C=C/c3ccco3)cc2N1,IC50,[2],13.4 µM (active)
O=C(CCCn1c(SCC(=O)c2ccc(O)c(O)c2)nc2ccccc2c1=O)NCC1CCCO1 (stereo not drawn),IC50,H9c2,17.4 µM (active)
Cn1c(NCc2ccccc2)nc2c1c(=O)n(Cc1ccc(Br)cc1)c(=O)n2C,EC50,[3],13.5 µM (active)
same,EC50,[4],18 µM (active)
same,EC50,[5],12.4 µM (active)
same,IC50,[1],5.48 µM (active)
Cc1nc(Nc2ccccc2)c2nc(-c3ccccc3)n(CCCN3CCCCC3C)c2n1 (stereo not drawn),AC50,Cytochrome P450 3A4,12.6 µM (inconclusive)
COc1ccccc1N1CCN(C(=O)c2ccc(CSc3ccccc3)cc2)CC1,IC50,[1],8.99 µM (not active)
COc1ccc(CCNC(=O)c2cc(C(=O)c3cc(C)ccc3O)cn(CCc3ccc(OC)cc3)c2=O)cc1,IC50,H9c2,> 79 µM (inactive)
O=C1CC[C@@]23/C=C/C(=O)NCCCCNCCCNC(=O)/C=C/c4ccc(c2c4)OC3C1 (stereo partly drawn),AC50,Cytochrome P450 3A4,39.8 µM (inconclusive)
Cn1c(=O)n(CCc2ccccc2)c(=O)c2c1nc1n2CCCN1Cc1ccccc1,IC50,H9c2,> 79 µM (inactive)
O=NN(O)c1ccccc1,AC50,Cytochrome P450 3A4,31.6 µM (inconclusive)
O=C(CC1SC(=O)N(c2ccccc2)C1=O)Nc1cccc2ccccc12 (stereo not drawn),IC50,Large T antigen,70.4 µM (active)
CCOC(=O)c1ccc(S(=O)(=O)Nc2nc3cc(S(=O)(=O)NC4=NCCCCC4)ccc3s2)cc1,IC50,Large T antigen,33.4 µM (active)
same,IC50,[6],107 µM (active)
Cc1cc2nc(C)c(Cl)c(O)n2n1,IC50,[7],13.2 µM (active)
O=C(COc1ccc([N+](=O)[O-])cc1)Nc1ccc(C(=O)Nc2ccccc2C(=O)O)cc1,IC50,[2],12.3 µM (active)
COc1ccc(OCC(=O)OCCN(C)C)cc1,IC50,[7],14.5 µM (active)
Cc1ccc(NC(=O)CN(C)C(=O)CCCN2C(=O)c3ccccc3C2=O)cc1,IC50,[1],10.3 µM (not active)
CCOC(=O)N1CCC(N2CCCC(C(=O)c3ccc4cc(OC)ccc4c3)C2)CC1 (stereo not drawn),EC50,[8],1.12 µM (active)
same,EC50,[9],56.6 µM (active)
same,IC50,cells,21.9 µM (active)
Cc1ccc2nsnc2c1S(=O)(=O)N1CCN(CCc2ccccc2)CC1,IC50,[7],11.8 µM (active)
CCCCNc1nc(C)nc2c1nc(C)n2CCC,AC50,Cytochrome P450 3A4,31.6 µM (inconclusive)
O=C(Nc1ccc(Oc2ccccc2)cc1)C1CCCN(c2ncccn2)C1 (stereo not drawn),IC50,[1],14.7 µM (not active)
same,EC50,[10],> 53 µM (inactive)
CC(=O)OC1CC(OC(C)=O)[C@]2(C)C(CC(=O)[C@]3(C)C2CC[C@@]2(C)C(C(=O)O)OC(=O)C4OC423)C1(C)C (stereo partly drawn),AC50,Cytochrome P450 3A4,39.8 µM (inconclusive)
CNC(=O)c1ccc(-c2sc3nc(N4CCOCC4)c4c(c3c2N)CC(C)(C)OC4)o1,IC50,Large T antigen,2.6 µM (active)
same,IC50,H9c2,> 79 µM (inactive)
same,AC50,Cytochrome P450 2D6,15.8 µM (inconclusive)
COC(=O)C1(C)C=CC2(CCCCC2)N1C(C)=O (stereo not drawn),AC50,Cytochrome P450 3A4,15.8 µM (inconclusive)
O=C(Nc1cccc(C(=O)O)c1)/C(=C\C=C\c1ccccc1)NC(=O)c1ccccc1,IC50,[1],13.6 µM (not active)
O=C1NC(Cc2ccc(O)cc2)c2nc3ccc(F)cc3c(=O)n2-c2cc3ccccc3cc21 (stereo not drawn),IC50,H9c2,> 79 µM (inactive)
COc1cc(/C=N/Nc2nc3ccccc3nc2O)ccc1O,IC50,Large T antigen,18 µM (active)
C/C(=N\Nc1cccc(C(=O)O)c1)c1ccc2c(c1)Nc1ccccc1S2,IC50,[11],0.431 µM (active)
same,IC50,Genome polyprotein,> 100 µM (active)
O=C(CCCCCCCCC(=O)N/N=C/c1ccco1)N/N=C/c1ccco1,IC50,[2],11.5 µM (active)
CC(SCc1ccccc1)C(=O)N/N=C/c1ccc(OCC(=O)NCc2ccco2)cc1 (stereo not drawn),IC50,[7],2 µM (active)
CC(=O)OCC1=C(C(=O)O)N2C(=O)[C@@H](NC(=O)Cc3cccs3)[C@H]2SC1 [CEPHALOTHIN],IC50,[2],2.79 µM (active)
